# Reference: PubChem BioAssay AID651630 (Sanford-Burnham Center for Chemical Genomics, 2012)
# Activity calls are given as the source filed them.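 How the source made its calls: active means lipid-stain IC50 at or below a set limit, with nuclear-stain toxicity IC50 at least five times higher; inactive means the rest.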
# Experiments:
# DAPI = assay: triacylglycerol accumulation inhibitor potency, dose response, cell-based, panel, Nile Red and DAPI fluorescence, H9c2 (AID 651630); details: H9c2 cells, DAPI nuclear fluorescence (cytotoxicity counter-readout), oleic acid;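 further: cells exposed to compound overnight before fixation and staining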
# TAG = assay: as above; details: H9c2 cells, Nile Red TAG fluorescence, oleic acid
IC50 (TAG; mean of runs),IC50 (TAG; run 1) [µM],IC50 (TAG; run 2) [µM],Structure (SMILES),IC50 cytotoxicity (DAPI nuclear signal decrease) (DAPI; mean of runs),IC50 cytotoxicity (DAPI nuclear signal decrease) (DAPI; run 1) [µM],IC50 cytotoxicity (DAPI nuclear signal decrease) (DAPI; run 2) [µM]
10.1 µM,10.8,9.39,CCCOc1ccc(F)cc1-c1cc(C(=O)NCc2cc(OC)cc(OC)c2)[nH]n1,> 25 µM (inactive),> 25,> 25
–,14.4,> 25,O=C1C=CC(O)C2(CO)OC12 (stereo unspecified),> 25 µM (inactive),> 25,> 25
8.04 µM,8.42,7.65,CCCCCc1cc(=O)oc2c(C(CCN3CCN(c4ccccc4)CC3)c3ccc4c(c3)OCO4)c(OC)cc(OC)c12 (stereo unspecified),> 25 µM (inactive),> 25,> 25
> 25 µM (inactive),> 25,> 25,CCN1CCN(c2ncc3c(n2)CC(c2cc(OC)c(OC)c(OC)c2)CC3=O)CC1 (stereo unspecified),> 25 µM (inactive),> 25,> 25
8.54 µM,6.55,10.5,O=C(Nc1ccc(-c2csc(Nc3ccc(Cl)cc3)n2)cc1)c1cc([N+](=O)[O-])cc(C(F)(F)F)c1,> 25 µM (inactive),> 25,> 25
> 25 µM (inactive),> 25,> 25,CCOc1ccc(S(=O)(=O)NCc2ccccn2)cc1NC(=O)c1ccccc1,> 25 µM (inactive),> 25,> 25
> 25 µM (inactive),> 25,> 25,CCOc1ccccc1-c1nc(-c2ccc(NC(=O)Cc3ccccc3OC)cc2)no1,> 25 µM (inactive),> 25,> 25
12.1 µM,12.8,11.3,O=C(c1ccoc1)N1CCN(c2cc(-c3ccccc3)nc3cc(-c4ccc(Br)cc4)nn23)CC1,> 25 µM (inactive),> 25,> 25
6.39 µM,6.47,6.31,COc1ccc(-c2cc(CNc3nc(NC(C)C)nc4cc(-c5ccccc5)sc34)on2)cc1,> 25 µM (inactive),> 25,> 25
> 25 µM (inactive),> 25,> 25,Cc1ccc2c(=O)n3c(nc2c1)C(Cc1ccc(O)cc1)NC(=O)c1cc2ccccc2cc1-3 (stereo unspecified),> 25 µM (inactive),> 25,> 25
14.9 µM,14.6,15.1,COC(=O)[C@]1(CC(C)C)N[C@H](c2ccc(-c3ccc(F)cc3)cc2)[C@@H]2C(=O)N(C)C(=O)[C@@H]21,> 25 µM (inactive),> 25,> 25
> 25 µM (inactive),> 25,> 25,COC(=O)C1=C(C)N(Cc2ccccc2)C(=NCC(C)C)N[C@H]1c1cccc(F)c1,> 25 µM (inactive),> 25,> 25
4.52 µM,3.4,5.64,COc1cccc(-c2nc(-c3ccc(NC(=O)Cc4ccccc4OC)cc3)no2)c1,–,> 25,> 25
